Patent US4285956A, “Xanthene and thioxanthene derivatives, compositions thereof and treatment therewith” (priority 1978, dated 1981)
Entries after “also recorded” stand apart in the source; their conditions may differ.

Experiments:
[1] = Neuroleptic effect: duration and strength (remarks of Table 2); type: in vivo; settings: in words; for Duration (remarks, words): duration of neuroleptic effect; for Strength of effect (remarks, words): strength of neuroleptic effect
Excerpt: The pharmacological testing of the novel xanthones and thioxanthenes of Formula I consisted of standard and reliable tests. […]

[2] = Methylphenidate antagonism (mice biting corrugated paper); type: in vivo; settings: mice, i.p.; for ED50: Mus musculus, ip
Protocol: Methylphenidate antagonism (ED50 mg/kg i.p.)
Perspex observation cages without bottom and lid, consisting of 5 sections each measuring 12×25×30 cm. White corrugated paper. Mice, male, 18-25 g.
The test substance is given i.p. in the doses 0, 1/8, 1/32 and 1/128 of the determined "i.p. LD50". 3×2 mice are used for each dose level. Two or 24 hours after injection of test substance, methylphenidate, 60 mg/kg, is injected s.c. After administration of methylphenidate the mice are placed in the observation cages, 2 in each cage, where they remain for exactly 1 hour. The cages are placed on corrugated paper, the corrugations facing upwards. It is examined whether the mice have been biting the corrugated paper or not. […] If one or more of the control pairs have not been biting, the test has to be repeated on a new set of mice.
The result is stated in fractions: 0/3, 1/3, 2/3 and 3/3 where 0, 1, 2 and 3 are the number of pairs which have not been biting on receipt of the dose in question.
The results are calculated as the dose (ED50), which causes antagonism in 50% of the test animals.

[3] = Catalepsy wire mesh, rat, max.; type: in vivo, rats; settings: for ED50: Rattus norvegicus, sc, rats, s.c., strongest effect within first 6 hours, read-out: Catalepsy wire mesh, rat, max. ED50; for Cataleptic activity: in words
Protocol: Catalepsy wire mesh, rat, max. (ED50 mg/kg s.c.)
A vertical wire netting (50 cm×49 cm). The meshes (openings) of the netting are square (1 cm×1 cm). The wire diameter is 2 mm. Stop watch. Rats, male, 180-200 g.
The animals are labeled and used in groups of five. The test substance is injected subcutaneously (s.c.) (5 ml/kg) at 4 dose levels selected from the fixed dose scale.
The animals are placed in the middle of the vertical wire netting 60, 120, 180, 240, 300 and 360 minutes after injection of the test compound. The animals are considered cataleptic when they remain immobile during a period of 15 seconds. This cataleptic reaction is designated +. If the rats are "atonic" and passively slide down the wire mesh they are considered not cataleptic. If the animals climb up and down the wire mesh they are nor cataleptic. In both situations the designation - is used.

[4] = Amphetamine antagonism (stereotypy in rats); type: in vivo; settings: Rattus norvegicus, ip, 24 h, read-out: Amphetamine antagonism ED50
[5] = methylphenidate 60 mg/kg s.c. 2 h after test substance, read-out: Methylphenidate antagonism ED50, 2 h
[6] = methylphenidate 60 mg/kg s.c. 24 h after test substance, read-out: Methylphenidate antagonism ED50, 24 h

For “1-(2-Oxazolidinon-3-yl)ethyl)-4-(2-fluoro-6-methyl-9-thioxanthenylidene)-piperidine [Lu-15-062]”, the “Duration (remarks, words)” value [1] was “short acting”, the “Strength of effect (remarks, words)” value [1] was “moderately strong” and the “Methylphenidate antagonism ED50, 2 h” value ([2]; methylphenidate 60 mg/kg s.c. 2 h after test substance) was 0.51 mg/kg. The “Methylphenidate antagonism ED50, 24 h” value ([2]; methylphenidate 60 mg/kg s.c. 24 h after test substance) was greater than 40 mg/kg.
With `O[C@H]1CCC[C@H](CN2CCC(=C3c4ccc(F)cc4Sc4ccc(C(F)(F)F)cc43)CC2)C1` (relative stereo) [Lu 15-030, 1-(trans-3-hydroxycyclohexylmethyl)-4-(2-trifluoromethyl-6-fluoro-9-thioxanthenylidene)-piperidine] the “Duration (remarks, words)” value [1] was “long acting”, the “Strength of effect (remarks, words)” value [1] was “very strong” and the ED50 [2, 5] was 0.28 mg/kg. For the same molecule, the ED50 [2, 6] was 0.05 mg/kg, the ED50 [3] was 0.39 mg/kg and the “Cataleptic activity” value [3] was “have a cataleptic activity”. It also gave an ED50 [4] of 0.88 mg/kg.
For `O[C@@H]1CC[C@H](CN2CCC(=C3c4ccccc4Sc4ccc(Cl)cc43)CC2)C[C@H]1O` (relative stereo) [Lu 15-041, 1-(3-trans-4-cis-dihydroxycyclohexylmethyl)-4-(2-chloro-9-thioxanthenylidene)piperidine], the “Duration (remarks, words)” value [1] was “moderately long acting”, the “Strength of effect (remarks, words)” value [1] was “strong” and the ED50 [2, 5] was 0.62 mg/kg. For the same molecule, the ED50 [2, 6] was 3.6 mg/kg and the ED50 [4] was less than 0.31 mg/kg.
With `O[C@@H]1CC[C@H](CN2CCC(=C3c4ccc(F)cc4Sc4ccc(C(F)(F)F)cc43)CC2)C[C@H]1O` (relative stereo) [Lu 15-052, 1-(3-trans-4-cis-dihydroxycyclohexylmethyl)-4-(2-trifluoromethyl-6-fluoro-9-thioxanthenylidene)-piperidine] the “Duration (remarks, words)” value [1] was “long acting”, the “Strength of effect (remarks, words)” value [1] was “strong; also recorded: very strong” and the ED50 [2, 5] was 0.32 mg/kg. The ED50 [2, 6] was 0.06 mg/kg, the ED50 [3] was 0.026 mg/kg and the “Cataleptic activity” value [3] was “have a cataleptic activity”. The ED50 [4] was 0.9 mg/kg.
With `O[C@@H]1CC[C@H](CN2CCC(=C3c4ccc(F)cc4Sc4ccc(Cl)cc43)CC2)C[C@H]1O` (relative stereo) [Lu 15-070, 1-(3-trans-4-cis-dihydroxycyclohexylmethyl)-4-(2-chloro-6-fluoro-9-thioxanthenylidene)-piperidine] the “Duration (remarks, words)” value [1] was “moderately long acting”, the ED50 [2, 5] was 0.51 mg/kg and the ED50 [2, 6] was 0.5 mg/kg.
With `O[C@H]1CCCC[C@H]1CN1CCC(=C2c3ccc(F)cc3Sc3ccc(C(F)(F)F)cc32)CC1` (relative stereo) [Lu 15-138, 1-(cis-2-hydroxycyclohexylmethyl)-4-(2-trifluoromethyl-6-fluoro-9-thioxanthenylidene)-piperidine] the “Duration (remarks, words)” value [1] was “long acting”, the “Strength of effect (remarks, words)” value [1] was “strong” and the ED50 [2, 5] was 1.3 mg/kg. For the same molecule, the ED50 [2, 6] was 0.15 mg/kg and the ED50 [4] was 1.7 mg/kg.
For `O[C@H]1CC[C@H](CN2CCC(=C3c4ccccc4Sc4ccc(Cl)cc43)CC2)CC1` [Lu 14-047, 1-(trans-4-hydroxycyclohexylmethyl)-4-(2-chloro-9-thioxanthenylidene)-piperidine], the “Duration (remarks, words)” value [1] was “short acting”, the “Strength of effect (remarks, words)” value [1] was “strong” and the ED50 [2, 5] was 0.59 mg/kg. The ED50 [2, 6] was greater than 20 mg/kg, the ED50 [3] was 3.5 mg/kg and the ED50 [4] was 0.32 mg/kg.
In the case of `Cc1ccc2c(c1)C(=C1CCN(CCN3CCOC3=O)CC1)c1ccc(F)cc1S2` [Lu 14-070, 1-(2-(2-Oxazolidinon-3-yl)ethyl)-4-(2-methyl-6-fluoro-9-thioxanthenylidene)-piperidine], the “Duration (remarks, words)” value [1] is reported as “short acting”, the “Strength of effect (remarks, words)” value [1] is reported as “moderately strong” and the ED50 [2, 5] is reported as 0.32 mg/kg. It also gave an ED50 [2, 6] greater than 40 mg/kg, an ED50 [3] of 1.8 mg/kg and an ED50 [4] of 1.3 mg/kg.
For `Cc1ccc2c(c1)C(=C1CCN(C[C@H]3CC[C@H](O)CC3)CC1)c1ccc(F)cc1S2` [Lu 14-082, 1-(trans-4-hydroxycyclohexylmethyl)-4-(2-methyl-6-fluoro-9-thioxanthenylidene)-piperidine], the “Duration (remarks, words)” value [1] was “short acting”, the “Strength of effect (remarks, words)” value [1] was “moderately strong” and the ED50 [2, 5] was 0.79 mg/kg. For the same molecule, the ED50 [2, 6] was greater than 10 mg/kg.
With `Cc1ccc2c(c1)Sc1ccc(F)cc1C2=C1CCN(C[C@H]2CC[C@H](O)CC2)CC1` [Lu 14-090, 1-(trans-4-hydroxycyclohexylmethyl)-4-(2-fluoro-6-methyl-9-thioxanthenylidene)-piperidine] the “Duration (remarks, words)” value [1] was “short acting”, the “Strength of effect (remarks, words)” value [1] was “moderately strong” and the ED50 [2, 5] was 1.25 mg/kg. The ED50 [2, 6] was 32 mg/kg.
In the case of `O[C@H]1CC[C@H](CN2CCC(=C3c4ccc(F)cc4Sc4ccc(Cl)cc43)CC2)CC1` [Lu 14-114, 1-(trans-4-hydroxycyclohexylmethyl)-4-(2-chloro-6-fluoro-9-thioxanthenylidene)-piperidine], the “Duration (remarks, words)” value [1] is reported as “short acting”, the “Strength of effect (remarks, words)” value [1] is reported as “strong” and the ED50 [2, 5] is reported as 0.1 mg/kg. It also gave an ED50 [2, 6] of 6.6 mg/kg and an ED50 [4] of 0.35 mg/kg.
For `OC1COC(CN2CCC(=C3c4ccccc4Sc4ccc(Cl)cc43)CC2)OC1` (stereo not drawn) [Lu 14-140, 1-(5-hydroxy-1,3-dioxan-2-yl)methyl-4-(2-chloro-9-thioxanthenylidene)-piperidine], the “Duration (remarks, words)” value [1] was “short acting”, the “Strength of effect (remarks, words)” value [1] was “strong” and the ED50 [2, 5] was 0.77 mg/kg. For the same molecule, the ED50 [2, 6] was greater than 40 mg/kg.
In the case of `O[C@H]1CC[C@@H](CN2CCC(=C3c4ccccc4Sc4ccc(Cl)cc43)CC2)CC1` [Lu 15-014, 1-(Cis-4-hydroxycyclohexylmethyl)-4-(2-chloro-9-thioxanthenylidene)-piperidine], the “Duration (remarks, words)” value [1] is reported as “short acting”, the “Strength of effect (remarks, words)” value [1] is reported as “strong” and the ED50 [2, 5] is reported as 0.2 mg/kg. It also gave an ED50 [2, 6] greater than 10 mg/kg and an ED50 [3] of 2.5 mg/kg.
In the case of `Fc1ccc2c(c1)Sc1ccc(C(F)(F)F)cc1C2=C1CCN(CC2CCOCC2)CC1` [Lu 15-031, 1-(4-tetrahydropyranylmethyl)-4-(2-trifluoromethyl-6-fluoro-9-thioxanthenylidene)piperidine], the “Duration (remarks, words)” value [1] is reported as “long acting”, the “Strength of effect (remarks, words)” value [1] is reported as “moderately strong” and the ED50 [2, 5] is reported as 0.52 mg/kg. For the same molecule, the ED50 [2, 6] was 0.55 mg/kg and the ED50 [4] was 1.3 mg/kg.
For `CC1(O)CCC(CN2CCC(=C3c4ccc(F)cc4Sc4ccc(C(F)(F)F)cc43)CC2)CC1` (stereo not drawn) [Lu 15-048, 1-(4-hydroxy-4-methylcyclohexylmethyl)-4-(2-trifluoromethyl-6-fluoro-9-thioxanthenylidene)-piperidine], the “Duration (remarks, words)” value [1] was “long acting”, the “Strength of effect (remarks, words)” value [1] was “strong” and the ED50 [2, 5] was 1.3 mg/kg. The ED50 [2, 6] was 0.13 mg/kg and the ED50 [4] was less than 0.31 mg/kg.
In the case of `O[C@H]1CC[C@H](CN2CCC(=C3c4ccc(F)cc4Sc4cc(F)ccc43)CC2)CC1` [Lu 15-062, 1-(trans-4-hydroxycyclohexylmethyl)-4-(3,6-di-fluoro-9-thioxanthenylidene)-piperidine], the “Duration (remarks, words)” value [1] is reported as “short acting”, the “Strength of effect (remarks, words)” value [1] is reported as “moderately strong” and the ED50 [2, 5] is reported as 0.77 mg/kg. For the same molecule, the ED50 [2, 6] was greater than 10 mg/kg and the ED50 [4] was 0.85 mg/kg.
For `CC(=O)N[C@H]1CC[C@H](CN2CCC(=C3c4ccc(F)cc4Sc4ccc(C(F)(F)F)cc43)CC2)CC1` [Lu 16-043], the “Duration (remarks, words)” value [1] was “long acting”, the “Strength of effect (remarks, words)” value [1] was “relatively strong” and the ED50 [2, 5] was greater than 10 mg/kg. It also gave an ED50 [2, 6] of 0.42 mg/kg and an ED50 [3] greater than 20 mg/kg.
For `CS(=O)(=O)c1ccc2c(c1)C(=C1CCN(C[C@H]3CC[C@H](O)CC3)CC1)c1ccccc1S2` [Lu 16-066, 1-(Trans-4-hydroxycyclohexylmethyl)-4-(2-methylsulfonyl-9-thioxanthenylidene)piperidine], the “Duration (remarks, words)” value [1] was “short acting”, the “Strength of effect (remarks, words)” value [1] was “moderately strong” and the ED50 [2, 5] was 0.73 mg/kg. The ED50 [2, 6] was greater than 10 mg/kg and the ED50 [3] was 0.25 mg/kg.
In the case of `N[C@H]1CC[C@H](CN2CCC(=C3c4ccccc4Sc4ccc(Cl)cc43)CC2)CC1` [Lu 16-081], the “Duration (remarks, words)” value [1] is reported as “short acting”, the “Strength of effect (remarks, words)” value [1] is reported as “moderately strong” and the ED50 [2, 5] is reported as 0.5 mg/kg. For the same molecule, the ED50 [2, 6] was roughly 10 mg/kg.
In the case of `CN(C)S(=O)(=O)c1ccc2c(c1)C(=C1CCN(C[C@H]3CC[C@H](O)CC3)CC1)c1ccc(F)cc1S2` [Lu 16-107, 1-(Trans-4-hydroxycyclohexylmethyl)-4-(2-dimethylsulfamoyl-6-fluoro-9-thioxanthenylidene)piperidine], the “Duration (remarks, words)” value [1] is reported as “long acting”, the “Strength of effect (remarks, words)” value [1] is reported as “moderately strong” and the ED50 [2, 5] is reported as 1.9 mg/kg. It also gave an ED50 [2, 6] of 0.76 mg/kg and an ED50 [3] of 0.28 mg/kg.
